Structures are written as SMILES.

Consider three compounds from patent US7981907B2 (dated 2011).

A word on the melting point: it is the temperature, or range, at which the solid turns liquid. Take `CC(=O)c1ccc(-c2ccccc2C[S+]([O-])CC(N)=O)cc1` (stereo not drawn): the melting point was 155 to 160 °C.

Turning to `Cc1ccc(C[S+]([O-])CC(N)=O)cc1-c1ccccc1` (stereo not drawn), the melting point turned out to be 153 °C.

`Cc1noc(C)c1-c1cccc(C[S+]([O-])CC(N)=O)c1` (stereo not drawn) showed a melting point of 34 to 43 °C.
